How the values were obtained:
Format in all cases: cell-based
SK-ov-3 = assay: GI50 growth inhibition, trypan blue cell count; conditions: Homo sapiens, ovarian, 96 hours after addition
Experimental: (§1) The human carcinoma cell lines listed in Table 5 below were purchased from ATCC and grown in an appropriate growth medium containing 10% fetal bovine serum (FBS) and antibiotics. The cells were plated at a cell density of 1.0×10^5 cells per […] in 6-well dishes. The cells were treated with various concentrations of (E)-fluorostyryl-4-bromobenzylsulfone 24 hours after plating in a total volume of 1 ml of medium using dimethylsulfoxide (DMSO) as a solvent for the compound. Control cells were treated with DMSO alone. The total number of viable cells was determined 96 hours after the addition of the compound by counting the cells in each well using a hemacytometer after trypan blue staining (viable cells exclude the stain). The counts were done in duplicate and the average was graphed in FIG. 8 as a percentage of the non-treated control group.
(§2) Applying the same protocol as in Example 34, the GI50 for compound FRI-20 treatment of the cell lines in Table 6 was determined: […]

MES-SA = assay: GI50 growth inhibition, trypan blue cell count; conditions: Homo sapiens, uterine sarcoma, 96 hours after addition
Experimental: as §1, §2

SK-MEL-3 = assay: GI50 growth inhibition, trypan blue cell count; conditions: Homo sapiens, SK-MEL3; melanoma; 96 hours after addition
Experimental: as §1, §2

CEM = assay: GI50 growth inhibition, trypan blue cell count; conditions: Homo sapiens, CCRF-CEM; acute lymphocytic lymphoma; 96 hours after addition
Experimental: as §1, §2

SW1088 = assay: GI50 growth inhibition, trypan blue cell count; conditions: Homo sapiens, astrocytoma, 96 hours after addition
Experimental: as §1, §2

[1] = test system: LnCaP, BT-20 and MCF-7 cells; assay: Trypan blue exclusion viability/proliferation assay (dose and time course); conditions: 2.5 mM (FIG. 1A) and 5.0 mM (FIG. 1B), 48 hours of treatment
[2] = Trypan blue exclusion viability assay, normal fibroblasts; parameters: viability at 48 h: dose or concentration left out as unconfirmed; conditions: mouse, NIH3T3 cells (normal fibroblasts)
Experimental: The effect of the styryl sulfones on the growth of normal and tumor cells of breast and prostate was examine utilizing four cell lines, NIH3T3, MCF-7, BT-20 and LnCap. NIH/3T3 cells represent normal fibroblasts while LnCap is an androgen-dependent prostate tumor cell line. MCF-7 is an estrogen-responsive breast tumor cell line, while BT-20 is an estrogen-unresponsive breast tumor cell line. MCF-7 and BT-20 were grown in Dulbecco's modified Eagle's medium (DMEM) containing 10% fetal bovine serum supplemented with penicillin and streptomycin. LnCaP were cultured in RPMI with 10% fetal bovine serum containing penicillin and streptomycin. NIH3T3 cells were grown in DMEM containing 10% calf serum supplemented with penicillin and streptomycin. All cell cultures were maintained at 37° C. in a humidified atmosphere of 5% CO2.
The compounds identified in Tables 2, 3 and 4 inhibited cell growth and induced cell death, to varying degrees. The tables list the percent viable LnCap and MCF-7 cells treated with 5.0 μM compound.
The percentage of living cells was determined by Trypan blue exclusion. The control cells were treated with DMSO to determine the effect of solvent on cells. […] Under these conditions, only 2-3% of NIH3T3 cells were non-viable at both the concentrations. […] After 48 hours incubation, 60-75% of the LnCaP, BT-20 and MCF-7 cells were dead at […] FRI-20 concentration, whereas more than 90% of NIH3T3 cells were viable (FIG. 2A).

JNK = JNK immune complex kinase assay with GST-c-Jun substrate, treated cells; conditions: 48 hours treatment; NIH3T3, MCF-7 or LnCaP
Experimental: To further establish if the activity of stress activated protein kinases (SAPKs), of which JNK is a member, is compromised in the presence of FRI-20, cells (NIH3T3, MCF-7 or LnCaP) were treated with FRI-20 dissolved in DMSO or with DMSO alone. Forty-eight hours later, the cells were lysed with kinase buffer and the lysates used for estimation of the amount of JNK present in each lysate by western blot analysis using JNK polyclonal antibody. The biochemical activity of the JNK present in the FRI-20-treated and mock-treated cell lysates was also determined by immunoprecipitation of JNK followed by incubation with GST-c-Jun protein as a substrate for JNK in the presence of [γ-^32P]ATP.
Accordingly, JNK-1 in 100 mg of cell extracts was immunoprecipitated by incubating the lysate with […] of JNK-1 polyclonal antibody (sc from Santa Cruz Biotechnology) for one hour followed by an additional incubation with 20 μl of protein A-Sepharose (Pharmacia) for one hour. The beads were washed twice with JNK lysis buffer (as described above) followed by two washes with JNK reaction buffer. The beads were resuspended in 40 μl of JNK buffer containing […] [γ-^32P] […] The reaction was stopped, and the radioactivity in the phosphorylated GST-c-Jun protein was quantitated.

[3] = test system: LnCaP prostate tumor cell line; assay: Trypan blue exclusion viability assay, prostate tumor cell line; parameters: unit of the concentration uncertain; conditions: 48 hours
Experimental: (§3) The effect of FR-20 on the growth of normal and tumor cells of breast and prostate was examine utilizing nine cell lines: NIH/3T3 and HFL (normal fibroblast cell lines); MCF-7 and 361 ([…] breast tumor cell lines); BT-20, 435 and SKBR-3 ([…] breast tumor cell lines); LnCaP (androgen sensitive prostate tumor cell line); PC-3 and DU-145 (androgen insensitive prostate tumor cell line).
(§4) The cells were grown as in Example 22, A. FR-20 was dissolved in DMSO and added to the cells at 2.5 μM and 5.0 μM concentration. To control cells, DMSO was added equivalent to the volume of solvent (DMSO) present at the highest concentration of the compound. The activity of the compound was evaluated after 48 hours by Trypan blue exclusion. […] Nearly 50% of SKBR-3 and BT-20 cells were dead at 2.5 μM and 75% at 5.0 μM concentration of the compound. […] FRI-20 had profound effect on the viability of androgen-dependent LnCaP prostate tumor cell line when compared to androgen-independent DU-145 and PC-3 prostate cell lines. At […] FRI-20, 80% of LnCaP, 40% of PC-3 and 20% of DU-145 cells were killed. At […] FRI-20, 72% of LnCaP, 47% of PC-3 and 40% of DU-145 were killed (FIG. 3B).

PC-3 cells = assay: as above; parameters: unit of the concentration uncertain; conditions: 48 hours
Experimental: as §3, §4

DU-145 cells = assay: as above; parameters: unit of the concentration uncertain; conditions: 48 hours
Experimental: as §3, §4

SMILES: O=S(=O)(/C=C/c1ccc(F)cc1)Cc1ccc(Cl)cc1 [Example 11, E-4-fluorostyryl 4-chlorobenzyl Sulfone]
- GI50 (SK-ov-3): 1500 nM
- GI50 (MES-SA): 1000 nM
- GI50 (SK-MEL-3): 2000 nM
- GI50 (CEM): 1000 nM
- GI50 (SW1088): 2000 nM
- inhibition of growth and induction of death of LnCaP, BT-20 and MCF-7 cells [1]: substantially inhibit the growth and induce the death
- cytotoxicity at 48 h ([2]; 250 nM and 500 nM, 48 hours, read-out: non-viable NIH3T3 cells): 2 to 3%
- viability at 48 h, 5 µM ([2]; 5 μM): > 80%
- viability at 48 h ([2]; 48 hours incubation, read-out: viable NIH3T3 cells): > 80%
- enhancement of JNK phosphorylation of GST-c-Jun compared to mock-treated cells (JNK): 60-80%
- cells killed ([3]; 2.5 µM): 80%
- cells killed ([3]; 5.0 µM): 72%
- cells killed (PC-3 cells; 2.5 µM): 40%
- cells killed (PC-3 cells; 5.0 µM): 47%
- cells killed (DU-145 cells; 2.5 µM): 20%
- cells killed (DU-145 cells; 5.0 µM): 40%

Source: patent US6548553B2, “Styryl sulfone anticancer agents” (Temple University-of the Commonwealth System of Higher …, priority 1997, dated 2003)
